“And” between values parts separate entries of the source, which are not always exact repeats. Identical values can stand only once.

Format in all cases: in vivo, rat
The test system of one experiment is plasma AGRP. Briefly: Plasma AGRP level (RIA) after 4-day dosing in male DIO rats. Particulars: for AGRP (pg/0.1 mL), mean / AGRP (pg/0.1 mL): plasma; for AGRP (pg/0.1 mL), mean: group mean. The text has this:
A human AGRP RIA assay kit (Phoenix Pharmaceuticals, Inc., Belmont, Calif.), a human leptin RIA kit (Linco Research, Inc., St. Charles, Mo.), and a human specific insulin RIA kit (Linco Research, Inc., St. Charles, Mo.), were used to measure AGRP, leptin, and insulin, respectively in human plasma samples. A Phoenix AGRP RIA kit, which contains synthetic human AGRP (aa83-132) as a standard, was also used to measure AGRP level in rat plasma samples. […] Statistical comparison is based on one-way ANOVA, t or paired t test.
(§1) To determine if plasma AGRP level correlates with a subject's intake of MC4R agonists given as appetite suppressants, we measured plasma AGRP level in DIO rats after treatment with specific MC4 agonists. Male DIO rats were treated either with an MC4 agonist (15 mg/kg, po, b.i.d., for 4 days, n=7) or with vehicle (n=7). The specific MC4 agonist used for treatment was (aR)-N,N-bis(4-[(tert-butylamino)carbonyl]-4-cyclohexyl 1-{4-fluoro-N-[(2-methyl-2-azabicyclo[2.2.1]hept-6-yl)carbonyl]-D-phenylalanyl}piperidin-2-yl)-4-fluoro-N-[(2-methyl-2-azabicyclo[2.2.1]hept-6-yl)carbonyl]-D-phenylalaninamide hydrochloride (hereinafter Compound A).
(§2) After 4 days of treatment with Compound A or with vehicle, plasma samples were obtained from each rat. Plasma AGRP level was thereafter determined using an RIA Kit from Phoenix Pharmaceuticals, Inc. (Belmont, Calif.).
(§3) In a different experiment, groups of male DIO rats were treated either with a second MC4R agonist (20 mg/kg, po, b.i.d., for 4 days, n=6) or with vehicle (n=5). In this study, the specific MC4 agonist used was 4-[2-methylaminocarbonyl-4-flurorphenyl]-1-{[(3S, 4R)-1-tert-butyl-4-(2,4-difluorophenyl)-pyrrolidin-3-yl]carbonyl}piperidine (hereinafter Compound B). […] For each treatment group, plasma samples were collected after 4 days of treatment and AGRP level was measured using an RIA Kit from Phoenix Pharmaceuticals, Inc. (Belmont, Calif.).
(§4) Male DIO rats were treated either with S(+) fenflurarnine (3 mg/kg, po, b.i.d., for 4 days, n=7) or with vehicle (n=5). […] After 4 days of treatment with Compound A or with vehicle, plasma samples were obtained from each rat. Plasma AGRP level was thereafter determined using an RIA Kit from Phoenix Pharmaceuticals, Inc. (Belmont, Calif.).

Experiment [1] is described as follows: Body weight change after 4-day dosing in male DIO rats. Particulars: for BW change (g), mean: group mean. As for the experimental part: as §1, §2, §3, §4
Experiment [2] in a line: Body weight change after 4-day sibutramine dosing in male Sprague-Dawley rats. Particulars: sibutramine 3 mg/kg oral once daily for 4 days; mean±standard error; n=7; vehicle gained 23.6±4.16 g. The method, then:
Male Sprague-Dawley rats (Charles River Laboratories, Wilmington, Mass.), which were 71 days of age at the beginning of the experiment, were treated with either vehicle alone (0.5% methyl cellulose; n=5 rats) or sibutramine (3 mg/kg of body weight in 0.5% methyl cellulose; n=7 rats). The treatment regime consisted of a single daily oral dose of the test compound every day for 4 days.
The body weight of each rat was measured before commencement of the experiment and at its conclusion. After 4 days of treatment with either test compound, plasma samples of each rat were collected for the measurement of AGRP level. […] The AGRP kit contains a synthetic human AGRP fragment (aa83-132) as the standard. […] For AGRP RIA, 100 μl rat plasma was used per assay. […] Statistical comparison is based on unpaired t test.

Where [3] appears, read: S(+) fenfluramine 3 mg/kg po b.i.d. 4 days, n=7.
The mark [4] stands for this setting: S(+) fenfluramine 3 mg/kg po b.i.d. 4 days, individual rats 1-7.
[5] abbreviates: Compound A 15 mg/kg po b.i.d. 4 days, n=7.
Where [6] appears, read: Compound A 15 mg/kg po b.i.d. 4 days, individual rats 1-7, hydrochloride, 15 mg/kg.
Setting [7] is: Compound B 20 mg/kg po b.i.d. 4 days, n=6.
Where [8] appears, read: Compound B 20 mg/kg po b.i.d. 4 days, individual rats 1-6.

As for `CCN[C@@H](C)Cc1cccc(C(F)(F)F)c1` [S(+) fenfluramine, reference compound], the “AGRP (pg/0.1 mL), mean” value with plasma AGRP (setting [3]) is listed as 48.3 pg/0.1 mL. The “AGRP (pg/0.1 mL)” value with plasma AGRP (setting [4]) was 39.3 pg/0.1 mL and 22.8 pg/0.1 mL and 57.8 pg/0.1 mL and 62.6 pg/0.1 mL and 94.4 pg/0.1 mL and 16.9 pg/0.1 mL and 44.6 pg/0.1 mL. Moreover, in the experiment on plasma AGRP (S(+) fenfluramine 3 mg/kg po b.i.d. 4 days, vehicle 45.8±14), the “average plasma AGRP level” value was 48.3±9.9 pg/100 μl plasma. Also, in experiment [1] (setting [3]), the “BW change (g), mean” value was -16.3 g. In experiment [1] (setting [4]), the “BW change” value was −25 g and −13 g (2×) and −10 g (2×) and −15 g and −28 g. Further, in experiment [1] (S(+) fenfluramine 3 mg/kg po b.i.d. 4 days, mean±standard error, vehicle gained 14.2±1.9 g), the body weight lost came to 16.3 ± 2.7 g.

In the case of “(aR)-N,N-bis(4-[(tert-butylamino)carbonyl]-4-cyclohexyl 1-{4-fluoro-N-[(2-methyl-2-azabicyclo[2.2.1]hept-6-yl)carbonyl]-D-phenylalanyl}piperidin-2-yl)-4-fluoro-N-[(2-methyl-2-azabicyclo[2.2.1]hept-6-yl)carbonyl]-D-phenylalaninamide hydrochloride [Compound A]”, in the experiment with plasma AGRP (Compound A 15 mg/kg po b.i.d. 4 days, mean±standard error), the “Plasma AGRP level” value worked out at 36.2±2.5 pg/100 μl plasma. The “AGRP (pg/0.1 mL), mean” value in the experiment with plasma AGRP (setting [5]) stood at 36.2 pg/0.1 mL. Besides, the “AGRP (pg/0.1 mL)” value in the experiment on plasma AGRP (setting [6]) was 35.8 pg/0.1 mL and 42.2 pg/0.1 mL and 38.1 pg/0.1 mL and 46.2 pg/0.1 mL and 33 pg/0.1 mL and 26.5 pg/0.1 mL and 31.6 pg/0.1 mL. Also, the “BW change (g), mean” value in experiment [1] (setting [5]) was -4.9 g. The “BW change” value in experiment [1] (setting [6]) was 2 g and 1 g and −2 g and −5 g and −7 g (2×) and −16 g. Moreover, the body weight lost in experiment [1] (Compound A 15 mg/kg po b.i.d. 4 days, mean±standard error, vehicle gained 3.7±1.4 g) is 4.9 ± 2.3 g.

Compound `CC(C)CC(N(C)C)C1(c2ccc(Cl)cc2)CCC1.Cl.O` (centres unmarked) [sibutramine, N-{1-[1-(4-chlorophenyl)cyclobutyl]-3-methylbutyl}-N,N-dimethylamine hydrochloride monohydrate] had a body weight gained in experiment [2] of 10 ± 4.76 g.

Turning to `CNC(=O)c1cc(F)ccc1C1CCN(C(=O)[C@@H]2CN(C(C)(C)C)C[C@H]2c2ccc(F)cc2F)CC1` [Compound B, 4-[2-methylaminocarbonyl-4-flurorphenyl]-1-{[(3S, 4R)-1-tert-butyl-4-(2,4-difluorophenyl)-pyrrolidin-3-yl]carbonyl}piperidine], the “AGRP (pg/0.1 mL), mean” value in the experiment with plasma AGRP (setting [7]) came out at 48.4 pg/0.1 mL. Besides, the “AGRP (pg/0.1 mL)” value in the experiment on plasma AGRP (setting [8]) is 45.6 pg/0.1 mL and 26 pg/0.1 mL and 39.8 pg/0.1 mL and 66.9 pg/0.1 mL and 47 pg/0.1 mL and 64.8 pg/0.1 mL. Further, the “Plasma AGRP level” value with plasma AGRP (Compound B 20 mg/kg po b.i.d. 4 days, vehicle 45.8±14) amounted to 48.4±6.3 pg/100 μl plasma. The “effect on body weight (in words)” value in experiment [1] (Compound B 20 mg/kg po b.i.d. 4 days, DIO rats) is given as “not effective at reducing body weight”. In experiment [1] (setting [7]), the “BW change (g), mean” value is on record as 17.5 g. Besides, the “BW change” value in experiment [1] (setting [8]) is 25 g (2×) and 5 g and 23 g and 15 g and 12 g. The compound further showed a body weight gained in experiment [1] (Compound B 20 mg/kg po b.i.d. 4 days, mean±standard error, vehicle gained 14.2±1.9 g) of 17.5 ± 3.3 g.

Values taken from patent US20050169839A1, “Biomarker for efficacy of appetite suppressant drugs” (priority 2002, published 2005).
